Experimental data: patent US20210308028A1, “Compositions and Methods for Maintaining and Protecting Tissue Integrity and Barrier Function” (Colgate-Palmolive Company, priority 2020, published 2021)

What was measured:
[1] = tested on: zonula occludens-1 and occludin in B11 gingival keratinocytes; assay: Immunofluorescent staining of zonula occludens-1 and occludin; type: cell-based, human; settings: no challenge; Example 3, FIGS. 8, 11, 14
Protocol: (§1) Gingival keratinocytes treated as described above for 12 h were immunostained for zonula occludens-1 and occludin, two tight junction proteins. Briefly, the cells were fixed in 50 mM phosphate-buffered saline (pH 7.2) (PBS) containing 4% paraformaldhehyde for 20 min, permeabilized with 0.1% Triton X-100 for 10 min, and blocked in 3% non-fat milk in 20 mM Tris-HCl (pH 8), 150 mM NaCl, and 0.5% Tween 20 for 40 min. […] After washing with PBS, the cells were then treated with ProLong® Diamond antifade (Life Technologies). The slides were sealed with nail polish and were kept in the dark at 4° C. The localization of tight junction proteins in B11 cells was visualized using an Olympus FSX100 fluorescence microscope and FSX-BSW imaging software (Olympus, Tokyo, Japan). Immunofluorescent staining of tight junction proteins is a qualitative assay.
The localization of the tight junction proteins in B11 cells was visualized using an Olympus FSX100 fluorescence microscope and FSX-BSW imaging software (Olympus, Tokyo, Japan).

[2] = tested on: zonula occludens-1 and occludin in gingival keratinocytes challenged with P. gingivalis; assay: Immunofluorescence of tight junction proteins with P. gingivalis challenge; type: cell-based, human; settings: Example 4, FIGS. 17, 20, 23
Protocol: Gingival keratinocytes treated as described above for 12 h were immunostained for zonula occludens-1 and occludin, two tight junction proteins. Briefly, the cells were fixed in 50 mM phosphate-buffered saline (pH 7.2) (PBS) containing 4% paraformaldhehyde for 20 min, permeabilized with 0.1% Triton X-100 for 10 min, and blocked in 3% non-fat milk in 20 mM Tris-HCl (pH 8), 150 mM NaCl, and 0.5% Tween 20 for 40 min. The cells were incubated with 2.5 μg/mL of either occludin antibody-Alexa Fluor® 488 conjugate or ZO-1 antibody-Alexa Fluor® 594 conjugate in blocking buffer overnight at 4° C. After washing with PBS, the cells were then treated with ProLong® Diamond antifade (Life Technologies). The slides were sealed with nail polish and were kept in the dark at 4° C. The localization of tight junction proteins in B11 cells was visualized using an Olympus FSX100 fluorescence microscope and FSX-BSW imaging software (Olympus, Tokyo, Japan). Immunofluorescent staining of tight junction proteins is a qualitative assay.
The gingival epithelium, a stratified squamous tissue that acts as an interface between the external environment and the underlying connective tissue, plays an active role in maintaining oral health. […] The capability of test compositions to protect oral tissue from perio-pathogenic bacteria caused tissue damage was assessed using the methodology set out in Example 2. […]

[3] = tested on: B11 gingival keratinocytes challenged with P. gingivalis; type: cell-based, human; settings: P. gingivalis MOI=10^4; Example 4, FIGS. 15, 18, 21
Protocol: Tight junction integrity was assessed by determining the trans-epithelial electrical resistance (TER). B11 gingival keratinocytes were seeded onto Costar™ Transwell™ clear polyester membrane inserts (6.5-mm diameter; 0.4-μm pore size; Corning Co., Cambridge, Mass., USA) at 3×10^5 cells per insert. The basolateral and apical compartments were filled with 0.6 mL and 0.1 mL of complete K-SFM, respectively. Following a 72-h incubation, the conditioned medium was replaced with antibiotic-free K-SFM, and the cells were incubated for a further 16 h. The TER values were measured using an Ohm/voltmeter (EVOM2; World Precision Instruments, Sarasota, Fla., USA) at 0, 4, 8, 24, 48, and 72 h. Resistance values were calculated in Ohms (Ω)/cm 2 by multiplying the resistance values by the filter surface area. Results were expressed as percentage of the basal control values measured at time 0 h (100% values) for each condition.

[4] = tested on: B11 immortalized human gingival keratinocyte cell line; assay: Paracellular permeability to FITC-dextran (FD-4); type: cell-based; settings: no challenge; over 48 h; FIGS. 7, 10, 13
Protocol: The ability of test composition samples to enhance epithelial barrier integrity was assessed by monitoring the paracellular transport of FITC-conjugated 4.4-kDa dextran (FD-4; Sigma-Aldrich Canada Ltd.) across the keratinocyte layer. Briefly, B11 cells were cultured on Transwell filters, and FD-4 ([…] in culture medium) was added in the apical compartment in the presence of the test composition under investigation. Fluorescence in the basolateral compartment was measured at 0, 4, 8, 24, and 48 h using a Synergy 2 microplate reader (BioTek Instrument, Winooski, Vt., USA).
Briefly, B11 cells were cultured on Transwell™ filters, and FD-4 (1 mg/mL in culture medium) was added to the apical compartment in the presence of the test compounds. The presence of FD-4 in the basolateral compartment was determined at 0, 2, 6, 24, and 48 h by measuring the fluorescence (RUF; excitation wavelength 495 nm; emission wavelength 525 nm) using a Synergy 2 microplate reader.

[5] = tested on: occludin and zonula occludens-1 in TNF-α-treated gingival keratinocytes; assay: Immunofluorescence of tight junction proteins with TNF-α challenge; type: cell-based, human; settings: Example 5, FIGS. 26, 33, 34
Protocol: as §1
Assays exposed cells to either TNFα only or TNFα+test composition. TNFα is known to cause tissue damage. A stock solution of recombinant TNF-α is prepared in sterile distilled water at 100 μg/ml. Thereafter, dilutions are made in keratinocyte culture medium. First dilution is 1/1000 to obtain 100 ng/ml. TNF-α and the test compounds are added simultaneously.

P. gingivalis = P. gingivalis invasion / translocation through keratinocyte layer; type: cell-based, Porphyromonas gingivalis; settings: Example 6, FIGS. 36, 39, 42
Protocol: Assays were performed to determine the extent formulations can inhibit and reduce invasion of cell monolayer by P. gingivalis.
The basolateral and apical compartments were filled with 0.235 mL and 0.075 mL of K-SFM, respectively. Following a 48-h incubation, the conditioned medium was replaced with antibiotic-free K-SFM. To determine the ability of P. gingivalis to penetrate the keratinocyte layer, FITC-labeled bacteria suspended in antibiotic-free K-SFM were added to the apical compartment of the double-chamber system at an MOI of 10^4. […] To evaluate the effect of the Dual Zinc plus Arginine aqueous solution and dentifrice on the invasive capacity of P. gingivalis, the keratinocyte layer was co-incubated with them and the bacteria. The translocation of FITC-labeled bacteria through the keratinocyte barrier was monitored using a Synergy 2 microplate reader by measuring the fluorescence (RUF; excitation wavelength 495 nm; emission wavelength 525 nm) in the medium recovered from the lower chamber following a 24-h incubation in an anaerobic chamber at 37° C.

Row | SMILES | immunofluorescence of tight junction proteins (Occludin, Zonula Occludens-1) [1] | immunofluorescence of tight junction proteins with P. gingivalis [2] | TER with P. gingivalis challenge [3] | paracellular permeability to FITC-dextran [4] | TNFα induced cell junction disorganization (immunofluorescence) [5] | invasion of an epithelial cell monolayer by P. gingivalis (P. gingivalis)
1 | O=C([O-])CC(O)(CC(=O)[O-])C(=O)[O-].O=C([O-])CC(O)(CC(=O)[O-])C(=O)[O-].[Zn+2].[Zn+2].[Zn+2] [zinc citrate] | enhances barrier integrity | protects barrier integrity from the deleterious effects caused by the presence of P. gingivalis | protects tissue integrity from damage by P. gingivalis | decreased with the increase in concentration of zinc citrate | – | –
2 | [O]=[Zn] [zinc oxide] | enhances barrier integrity | protects barrier integrity from the deleterious effects caused by the presence of P. gingivalis | protects tissue integrity from damage by P. gingivalis | decreased with the increase in concentration of zinc oxide | prevents TNFα induced cell junction disorganization | inhibits invasion of an epithelial cell monolayer
